Test results from US8257714B2, “Compositions and methods for immunotherapy of cancer and infectious diseases” (priority 2003, dated 2012).

Key:
[1] = test system: DC-activity induced by ARP preparations; test: Effect of divalent cations on DC-activity of ARP; type: cell-based, mouse; conditions: mM-μM concentration range
From the text: Some differences exist in the interaction of copper and zinc with ARP and must be explored further. […] The former was inhibited by both-calcium and magnesium ions, while the latter—only by magnesium ions.

Plasmodium yoelii = test: Malaria in mice; type: in vivo, C57BL/6 mice; conditions: 40 mg/kg i.p. Days 1-5
Procedure: Groups of male C57BL/6 mice were inoculated i.v. on Day 0 with an infectious dose of Plasmodium yoelii. Groups of mice were administered, by i.p. injection, one of three concentrations of the test material (0.1, 1.0 or 10.0 ng/mouse/day) or vehicle on Day 1 and again on Days 2 through 5, for a total of five doses. An additional assay control group of mice was administered approximately 40 mg of Chloroquine per kg of body weight by i.p. injection on Days 1 through 5 as well.

Candida albicans = Candida albicans infection in mice; type: in vivo, CDI mice
Procedure: Groups of female CDI mice were inoculated intravenously (i.v.) on Day 0 with an infectious dose of Candida albicans calculated to provide 60-100% mortality in the control group. Groups of mice were administered, by i.p. injection, one of three concentrations of the test material (0.1, 1.0 or 10.0 ng/mouse/day) or vehicle on Day 0, approximately 1.5 hours following infectious challenge, and again on Days 1 through 4, for a total of five doses. An additional assay control group of mice was administered approximately 80 mg of fluconazole per kg of body weight by oral gavage approximately 1, 24, 48 and 72 hours following infectious challenge.

[2] = test system: freshly isolated dendritic cells (CD11c+ splenocytes); test: Dendritic cell (DC) assay: IL12 release from freshly isolated dendritic cells; type: cell-based, BALB/c mice; conditions: tested for synergism and inhibition
From the text: In a preferred embodiment, dendritic cell (DC) assay is used to follow interleukin-12 (IL-12) release from freshly isolated dendritic cells as an index of DC activation (see section 12.3). […] Briefly, by way of example but not limitation, a DC assay can be carried out as follows: freshly isolated dendritic cells (CD11c^+ splenocytes, e.g., isolated from the spleens of BALB/c mice within ten hours of assaying the activity) are suspended at a density of 0.5×10^6 cells per mL in cytokine supplemented culture media (GM-CSF, 1.0 ng/ml; IL-4, 1.0 ng/ml; IFNg, 3.0 ng/ml; anti mouse CD40, 0.5 mg/ml). […] Mouse IL-12 release from the dendritic cells (CD11c^+ splenocytes) is then measured using ELISA.
To follow the activity in semi-purified preparations of BEX, an assay which follows IL12 release from freshly isolated dendritic cells (DCs) as an index of DC activation was developed. This activity is highly correlated with both NK-CMC in vitro and anti-tumor activity in vivo.
DCs were isolated from the spleens of male BALB/c mice 8-12 weeks of age (Harlan Bioproducts for Science, Indianapolis, Ind.), using the magnetic assisted cell separation (MACS) system purchased from Miltenyi Biotech. In summary: Spleens were aseptically removed from mice and placed into a petri dish containing 5 mL holding media (DMEM/F12 supplemented with 10% FCS and antibiotics). Each spleen was then injected with ˜0.5 mls collagenase D solution (1 mg/mL in 10 mM Hepes-NaOH, pH 7.4, 150 mM NaCl, 5 mM MgCl2, 1.8 mM CaCl2), placed into 5-10 mL collagenase D, cut into 5-6 pieces and incubated at 37° C. for 45-60 min. Collagenase-digested spleens were then processed with glass slides and passed through a 70 μm nylon mesh cell strainer. After the strainer was flushed with 40 mL culture media, cells were centrifuged (8 min @ 200×G), suspended in 1 mL PBS and subjected to red blood cell lysis by incubating the cell suspension for 5 min at room temperature in 10 mL lysis buffer (155 mM NH4Cl, 10 mM KHCO3, 0.1 mM EDTA), followed by dilution in PBS to 50 mL and centrifugation (8 min @ 200×g). The splenocytes were then suspended in 10 mL MACS buffer (PBS pH 7.2, supplemented with 2 mM EDTA and 0.5% BSA), passed through a 40 μm nylon mesh cell strainer which was flushed with 40 mL MACS buffer. A preliminary cell count was taken at this time, prior to centrifugation (8 min @ 200×G). The splenocytes were suspended at a density of 10^8 cells per 400 μL MACS buffer. Paramagnetic MicroBeads coated with anti-CD11c^+ antibody were mixed with the splenocyte suspension (100 μL per 10^8 cells), incubated at +4° C. for 15 min, washed, suspended in 1.0 mL MACS buffer and passed through a MS+ separation column placed within a strong magnetic field. CD11c^+ cells were retained in the column whereas CD11c^− cells were washed off the column as the flow-through cell fraction. CD11c^+ cells were then collected by removing the column out of the magnetic field and flushing the column twice with 1 mL of MACS buffer. CD11c^+ cells were washed once with culture media and suspended at a density of 0.5×10^6 cells per mL in cytokine supplemented culture media {DMEM/F12 supplemented with 10% FCS and gentamicin containing mouse GM-CSF (1 ng/mL), mouse IL-4 (1 ng/mL), mouse IFNγ (3 ng/mL) and anti mouse CD40 (0.5 mg/mL)}.
Mouse IL12 release from CD11c^+ splenocytes was measured using ELISA. Briefly, CD11c+ cell culture supernatants were sampled following an overnight incubation (usually 15-18 hrs). Media samples ([…]) were added to ELISA plates coated with anti mouse IL12 (p70) capture antibody (R&D #MAB419; 250 ng in 100 μL per well) and incubated either at 37° C. or room temperature for 2 hrs. The ELISA plates were washed extensively with wash buffer after which 100 μL per well of detection antibody/detection reagent (biotinylated anti-mouse IL12; R&D #BAF419 at 50 ng/mL and streptavidin-HRP) was added. […]

Mouse sarcoma 180 cells = test: NK cell-mediated cytotoxicity (NK-CMC) assay, LGL/S180 co-culture; type: cell-based
Procedure: In one embodiment, a NK cell assay is used to assess ARP-induced cytotoxic activity of NK-like cells (see section 12.2). Briefly, by way of example but not limitation, a NK cell assay can be carried out as follows: large granular lymphocytes (LGLs) are co-cultured with tumor cells at various ratios (effector to target ratio) for four days at 37° C., 5% CO2. […] The culture is terminated at the end of day 4 and vitally stained using a MTT cell viability quantification assay (see Mossman, T. J. Immunol. Methods 65: 55 (1983); and Sigma Chemical MTT (M5655) product application note). Culture media is aspirated and the remaining cells are washed and replaced with DMEM/F12 plus FCS, containing MTT. The cells are further incubated for 4-5 hours at 37° C. Absorbance is measured with the aid of a plate reader. Decreased absorbance indicated a decrease in the number of viable cells per well (i.e., cytotoxicity). Absorbance is measured again after the MTT is solubilized by replacement of the medium with 2-propanol containing HCl, which gives a uniform color throughout the well. NK-inducing activity is calculated relative to negative (PBS/BSA) and positive (internal standard) controls.
Spleens (10-15 per experiment) were aseptically removed from male Balb/C mice 6-10 weeks of age. Splenocytes were “squeezed” out of spleens using 2 sterile glass microscope slides. Cells were collected in approximately 10 ml of DMEM/F 12 containing 10% fetal calf serum (FCS) and gentamicin (50 μg/ml). Single cell suspensions were generated by passing collected cells through a 70 μm nylon mesh screen. After washing the cell pellet once with PBS (centrifuged at 675×g for 5 min), red blood cells were lysed by brief hypotonic shock (i.e. exposure to sterile distilled, deionized water, followed immediately with appropriate volumes of 10×PBS to return to isotonicity). Remaining cells were centrifuged and resuspended in DMEM/F12+10% FCS and transferred to 75 cm^2 flasks each containing 25 mls DMEM/F12+10% FCS (cells from 5 spleens per flask). The cells were incubated for 60 min. at 37° C. to selectively remove readily adherent cells (mainly fibroblasts and macrophages). After the incubation, the flasks were gently shaken and the non-adherent cells were removed, pelleted by centrifugation, and resuspended in DMEM/F12 (no supplements) (1.0 mL/10^8 cells). A 1.0 mL volume of these cell suspensions were carefully layered onto a 70%/60%/40% (2 mL/4 mL/4 mL) Percoll™ gradients in 15 ml centrifuge tubes and centrifuged for 30 min at 675×G. The cells which sediment at the 40/60 interface represent primarily large granular lymphocytes (LGLs), enriched with NK cells. These cells were carefully removed with a pasteur pipet, centrifuged, washed once with PBS and resuspended in approximately 5 mL DMEM/F12 supplemented with gentamicin (50 μg/mL) and 10% fetal calf serum. Cell counts and appropriate dilutions of LGL cells were made with these cells, as described below. For convenience this LGL cell preparation is interchangeably referred to as NK cells.
Mouse sarcoma 180 cells were seeded into 96 well plates at a density of 5×10^3 cells per well in 100 μl DMEM/F12, supplemented with 10% FCS and gentamicin (50 μg/mL). […] NK cells were added in 100 μL of supplemented DMEM/F12 at designated densities: 0 NK cells/well; 5×10^4 NK cells/well (1:10 target/effector ratio); 1.25×10^5 NK cells/well (1:25 target/effector ratio); 2.5×10^5 NK cells/well (1:50 target/effector ratio); and, 5×10^5 NK cells/well (1:100 target/effector ratio). (Note: routinely, only the 1:50 and 1:100 ratios were used for screening purposes. IL2 was added as a media supplement with final concentration of 125 U/mL.). Co-cultures were incubated for 4 days at 37° C., 5% CO2, and terminated and vitally stained using a MTT cell viability quantification assay (see Mossman, T. J. Immunol. Methods 65:55 (1983); and Sigma Chemical MTT (M5655) product application note). […]

Molecule: [Cl][Cu][Cl] [CuCl2]
- inhibition of DC-activity of crude ARP preparations [1]: showed inhibition of activity

Molecule: CCN(CC)CCCC(C)Nc1ccnc2cc(Cl)ccc12 (stereo not shown) [Chloroquine]
- Parasitized Erytthrocytes % (Plasmodium yoelii): 12%
- Survival (Days) ± SD (Plasmodium yoelii): 37.0 ± 0.7 days

Molecule: [Cl-].[Cl-].[Mg+2] [MgCl2]
- inhibition of DC-activity of crude ARP preparations [1]: did not

Molecule: OC(Cn1cncn1)(Cn1cncn1)c1ccc(F)cc1F [Fluconazole, fluconazole]
- Percent Mortality (Candida albicans; ~80 mg/kg oral gavage): 0%
- Mean Survival Time (Candida albicans; ~80 mg/kg oral gavage 1, 24, 48 and 72 hours after challenge, all animals): 14.0 days

Molecule: [Cl-].[Cl-].[Zn+2] [ZnCl2]
- inhibition of DC-activity of crude ARP preparations [1]: showed inhibition of activity

Molecule: [Ca+2].[Cl-].[Cl-] [CaCl2]
- inhibition of DC-activity of crude ARP preparations [1]: did not

B1: IFNγ: Interferon-gamma (protein, UniProt P01580 23-155, looked up)
Interferon gamma: HGTVIESLESLNNYFNSSGIDVEEKSLFLDIWRNWQKDGDMKILQSQIISFYLRLFEVLKDNQAISNNISVIESHLITTFFSNSKAKKDAFMSIAKFEVNNPQVQRQAFNELIRVVHQLLPESSLRKRKRSRC
- DC mIL12 Release [2]: −
- NK-CMC on direct addition (Mouse sarcoma 180 cells; added directly to NK/S180 co-cultures): slight increase
- maximal response in the presence of IL-2 (Mouse sarcoma 180 cells; table footnote): ^6Weakly activates NK cells in the presence of IL-2 (maximal response <50% cytotoxicity).

B2: IL-10: interleukin (protein, UniProt P18893 19-178, looked up)
Interleukin-10: SRGQYSREDNNCTHFPVGQSHMLLELRTAFSQVKTFFQTKDQLDNILLTDSLMQDFKGYLGCQALSEMIQFYLVEVMPQAEKHGPEIKEHLNSLGEKLKTLRMRLRRCHRFLPCENKSKAVEQVKSDFNKLQDQGVYKAMNEFDIFINCIEAYMMIKMKS
- DC mIL12 Release [2]: inhibitory
- NK-CMC Activity (Mouse sarcoma 180 cells; wide range of concentrations, presence and absence of IL-2 (125 U/ml)): −
